Reference: paper PMC6364417, “Kinase inhibitor library screening identifies synergistic drug combinations effective in sensitive and resistant melanoma cells” (Journal of Experimental & Clinical Cancer Research : CR, 2019)
pIC50: −log10 of the molar value. Where two headings read alike, the source gives them in different places.

Assays:
A375 cells = experiment: Synergy determination with the Chou-Talalay method (CompuSyn), cell viability 72 h; format: cell-based, human; settings: 72 h cell viability, Chou-Talalay / Synergyfinder
Experimental: The Chou-Talalay method to determine possible synergistic effects of selected kinase inhibitor combinations was used as described in [19]. […] Cells were treated with either single inhibitors or combinations thereof at indicated amounts in technical triplicates. The amounts were pre-determined from each inhibitor’s IC50 value and inhibitors were assayed in a defined dilution series and at constant ratio when combined. […] Combination Index (CI) values showing either synergy (< 1) or antagonism (> 1) were calculated with the CompuSyn software (ComboSyn, Inc).

[1] = tested on: 501Mel-XP cells (Vemurafenib-resistant); experiment: Kinase inhibitor library screening, PrestoBlue cell viability, 1 or 10 μM, 72 h; settings: 72 h; for cell viability (kinase inhibitor library screening): 501Mel XP; for viability at 1 µM / viability at 10 µM: Homo sapiens; for viability at 1 µM: read-out: cell viability, 501Mel XP, 1μΜ; for viability at 10 µM: read-out: cell viability, 501Mel XP, 10μΜ
[2] = tested on: IGR37-GP cells (Dabrafenib-resistant); experiment: as above; settings: for cell viability (kinase inhibitor library screening): IGR37 GP, 72 h; for viability at 1 µM / viability at 10 µM: Homo sapiens, IGR-37, 72 h; for viability at 1 µM: read-out: cell viability, IGR37 GP, 1μΜ; for viability at 10 µM: read-out: cell viability, IGR37 GP, 10μΜ
[3] = tested on: 501Mel-GP cells (Dabrafenib-resistant); experiment: as above; settings: 72 h; for cell viability (kinase inhibitor library screening): 501Mel GP; for viability at 1 µM / viability at 10 µM: Homo sapiens; for viability at 1 µM: read-out: cell viability, 501Mel GP, 1μΜ; for viability at 10 µM: read-out: cell viability, 501Mel GP, 10μΜ
[4] = tested on: A375-GP cells (Dabrafenib-resistant); experiment: as above; settings: for cell viability (kinase inhibitor library screening): A375 GP, 72 h; for viability at 1 µM / viability at 10 µM: Homo sapiens, A-375, 72 h; for viability at 1 µM: read-out: cell viability, A375 GP, 1μΜ; for viability at 10 µM: read-out: cell viability, A375 GP, 10μΜ
[5] = tested on: A375-XP cells (Vemurafenib-resistant); experiment: as above; settings: for cell viability (kinase inhibitor library screening): A375 XP, 72 h; for viability at 1 µM / viability at 10 µM: Homo sapiens, A-375, 72 h; for viability at 1 µM: read-out: cell viability, A375 XP, 1μΜ; for viability at 10 µM: read-out: cell viability, A375 XP, 10μΜ
[6] = tested on: IGR37-XP cells (Vemurafenib-resistant); experiment: as above; settings: for cell viability (kinase inhibitor library screening): IGR37 XP, 72 h; for viability at 1 µM / viability at 10 µM: Homo sapiens, IGR-37, 72 h; for viability at 1 µM: read-out: cell viability, IGR37 XP, 1μΜ; for viability at 10 µM: read-out: cell viability, IGR37 XP, 10μΜ
IGR37 cells (parental) = experiment: as above; settings: for cell viability (kinase inhibitor library screening): IGR37 Parental, 72 h; for viability at 1 µM / viability at 10 µM: Homo sapiens, IGR-37, 72 h; for viability at 1 µM: read-out: cell viability, IGR37 Parental, 1μΜ; for viability at 10 µM: read-out: cell viability, IGR37 Parental, 10μΜ
A375 cells (parental) [7] = experiment: as above; settings: for cell viability (kinase inhibitor library screening): A375 Parental, 72 h; for viability at 1 µM / viability at 10 µM: Homo sapiens, A-375, 72 h; for viability at 1 µM: read-out: cell viability, A375 Parental, 1μΜ; for viability at 10 µM: read-out: cell viability, A375 Parental, 10μΜ
501Mel cells (parental) = experiment: as above; settings: 72 h; for cell viability (kinase inhibitor library screening): 501Mel Parental; for viability at 1 µM / viability at 10 µM: Homo sapiens; for viability at 1 µM: read-out: cell viability, 501Mel Parental, 1μΜ; for viability at 10 µM: read-out: cell viability, 501Mel Parental, 10μΜ
Summary of the method: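 Cells are treated with each inhibitor at 1 or 10 μM, incubated 72 h, then PrestoBlue reagent is added and the plate is read. Data are normalised to untreated cells.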

[8] = tested on: A375-GP cells (Dabrafenib-resistant); experiment: Dose-response curves and IC50, PrestoBlue cell viability, 72 h; format: cell-based, human; settings: n.e. = did not suppress growth below 50% in the tested concentration range, read-out: Half-maximal inhibitory concentration value (IC50), Mean
[9] = tested on: A375-XP cells (Vemurafenib-resistant); experiment: as above; format: cell-based, human; settings: n.e. = did not suppress growth below 50% in the tested concentration range, read-out: Half-maximal inhibitory concentration value (IC50), Mean
A375 cells (parental) [10] = experiment: as above; format: cell-based, human; settings: read-out: Half-maximal inhibitory concentration value (IC50), Mean
[11] = Homo sapiens, A-375, n.e. = did not suppress growth below 50% in the tested concentration range

pIC50 ([8]; Homo sapiens)	Compound	synergistic effects with the BRAF inhibitors Vemurafenib and/or Dabrafenib (in words) (A375 cells)	pIC50 ([9]; Homo sapiens)	pIC50 (A375 cells (parental) [10]; [11])	viability at 1 µM [1] [%]	viability at 10 µM [1] [%]	viability at 1 µM [2] [%]	viability at 10 µM [2] [%]	viability at 1 µM [3] [%]	viability at 10 µM [3] [%]	viability at 1 µM [4] [%]	viability at 10 µM [4] [%]	viability at 1 µM [5] [%]	viability at 10 µM [5] [%]	viability at 1 µM [6] [%]	viability at 10 µM [6] [%]	viability at 1 µM (IGR37 cells (parental)) [%]	viability at 10 µM (IGR37 cells (parental)) [%]	viability at 1 µM (A375 cells (parental) [7]) [%]	viability at 10 µM (A375 cells (parental) [7]) [%]	further results
6.19	O=C(NC1CCNCC1)c1[nH]ncc1NC(=O)c1c(Cl)cccc1Cl [AT7519, reference compound]	did not act synergistically	6.20	6.26																	cell viability (kinase inhibitor library screening) ([1]; 1μΜ): 73.2%; cell viability (kinase inhibitor library screening) ([1]; 10μΜ): 0.0524%; cell viability (kinase inhibitor library screening) ([2]; 1μΜ): 35.9%; cell viability (kinase inhibitor library screening) ([2]; 10μΜ): 3.9%; cell viability (kinase inhibitor library screening) ([3]; 1μΜ): 96.2%; cell viability (kinase inhibitor library screening) ([3]; 10μΜ): 0.428%; cell viability (kinase inhibitor library screening) ([4]; 1μΜ): 17.7%; cell viability (kinase inhibitor library screening) ([4]; 10μΜ): 4.8%; cell viability (kinase inhibitor library screening) ([5]; 1μΜ): 37.2%; cell viability (kinase inhibitor library screening) ([5]; 10μΜ): 7.6%; cell viability (kinase inhibitor library screening) ([6]; 1μΜ): 10.8%; cell viability (kinase inhibitor library screening) ([6]; 10μΜ): 2.4%; cell viability (kinase inhibitor library screening) (IGR37 cells (parental); 1μΜ): 79.7%; cell viability (kinase inhibitor library screening) (IGR37 cells (parental); 10μΜ): 2.2%; cell viability (kinase inhibitor library screening) (A375 cells (parental) [7]; 10μΜ): 8.2%; cell viability (kinase inhibitor library screening) (A375 cells (parental) [7]; 1μΜ): 30.7%; cell viability (kinase inhibitor library screening) (501Mel cells (parental); 1μΜ): 82.3%; cell viability (kinase inhibitor library screening) (501Mel cells (parental); 10μΜ): 1.4%
8.49	Cc1cc(C(=O)NOCCO)c(Nc2ccc(I)cc2F)n(C)c1=O [AZD8330, reference compound]	synergistic effects at low concentrations		8.74	69.7	56.7	57.5	52	86.3	74.6	17.9	13.3	10.5	12.1	45.7	19	33	34	17.3	17.7	viability at 1 µM (501Mel cells (parental)): 48.9%; viability at 10 µM (501Mel cells (parental)): 52.5%
	CN1CC[C@H](c2c(O)cc(O)c3c(=O)cc(-c4ccccc4Cl)oc23)[C@H](O)C1.Cl [Flavopiridol HCL]	did not act synergistically																			pIC50 [8]: 6.91; pIC50 [9]: 6.87; pIC50 (A375 cells (parental) [10]; n.e. = did not suppress growth below 50% in the tested concentration range): 6.95

Compound	pIC50 ([8]; Homo sapiens)	synergistic effects with the BRAF inhibitors Vemurafenib and/or Dabrafenib (in words) (A375 cells)	pIC50 ([9]; Homo sapiens)	pIC50 (A375 cells (parental) [10]; [11])	viability at 1 µM [1] [%]	viability at 10 µM [1] [%]	viability at 1 µM [2] [%]	viability at 10 µM [2] [%]	viability at 1 µM [3] [%]	viability at 10 µM [3] [%]	viability at 1 µM [4] [%]	viability at 10 µM [4] [%]	viability at 1 µM [5] [%]	viability at 10 µM [5] [%]	viability at 1 µM [6] [%]	viability at 10 µM [6] [%]	viability at 1 µM (IGR37 cells (parental)) [%]	viability at 10 µM (IGR37 cells (parental)) [%]	viability at 1 µM (A375 cells (parental) [7]) [%]	viability at 10 µM (A375 cells (parental) [7]) [%]	further results
O=C(Nc1cc(C(F)(F)F)cc(C(F)(F)F)c1)c1cc(Cl)ccc1O [IMD 0354, reference compound]	6.13	did not act synergistically	6.00	6.19	26	-0.369	46.7	15.4	25.5	-0.276	25.5	8.1	29.7	4.8	41.2	4.1	59.5	2.8	23.1	6.5	viability at 1 µM (501Mel cells (parental)): 34.2%; viability at 10 µM (501Mel cells (parental)): -0.0333%
